According to article PMC12400753 (Respiratory Research, 2025):

Tests used:
[1] = Rat plasma pharmacokinetics after oral dose; format: in vivo; details: 10 mg/kg oral, n=2
Procedure: This distinct, long-lived pharmacokinetic profile would support a dosing frequency less than that of other LPAR1 antagonists described in the literature.
Plasma and lung homogenate samples were thawed and further diluted as necessary with naïve mouse plasma or naïve lung homogenate matrix. […] Plasma drug concentrations were calculated by comparison of peak area ratios of analyte/IS to the prepared calibration standards using Sciex Analyst software.

[2] = test system: bleomycin-induced lung fibrosis; assay: Intratracheal bleomycin mouse model (14 day, prophylactic dosing); format: in vivo; details: for body weight improvement over bleomycin alone: day 14
Procedure: Intratracheal instillation of bleomycin results in acute alveolar cell damage, inflammation, and subsequent tissue remodeling and is a widely used preclinical IPF model.
Female C57BL6/N mice 8–10 weeks old were obtained from Charles River. […] Bleomycin was administered by oropharyngeal instillation 23 h after first dose (Day 0). On the day of instillation, bleomycin was prepared by diluting a 15 unit (U) vial to 1.5 U/mL with sterile saline. Mice were lightly anesthetized with isoflurane (5% in 100% O2) and administered sterile saline or bleomycin (3.0 U/kg) via oropharyngeal instillation at a dose volume of 2 mL/kg (2 µL/g). Mice were returned to their cages and monitored daily for the duration of each experiment. […] Fourteen days after bleomycin instillation, mice were euthanized via isoflurane anaesthesia, cardiac blood collected into K3EDTA tubes and stored on wet ice, and BALF and lungs were isolated for subsequent analysis of biochemical and histopathological indices of lung injury, inflammation, and fibrosis. To do this, mice were intubated with a 20-gauge luer stub adapter connected to a 3-way stopcock fitted with two 3 mL syringes (the delivery syringe was pre-filled with 1.5 mL phosphate buffered saline (PBS), and the receiving syringe was empty). Lungs were lavaged with PBS (2 × 0.75 mL) to obtain BALF. BALF was placed on wet ice until centrifugation to separate from cells. Lungs were dissected and placed into 1 mL 6 M HCl for collagen analysis using the Quickzyme total collagen assay kit according to manufacturer’s instructions. At the end of the experimental collection, BALF was centrifuged (300 x g, 10 min, 4 °C) to isolate BALF from the cell pellet. The cell pellet was discarded and the BALF aliquoted and stored at −80 °C for biomarker analysis. For the analysis, n = 8 biological replicates were analyzed in singlicate for various biomarkers (total protein, TGFβ1, TIMP-1, procollagen) according to manufacturer’s recommended instructions.

[3] = test system: primary human lung fibroblasts; assay: LPA-induced COL1A1 expression (immunocytochemistry); format: cell-based; details: 1 µM LPA 8 h; compound overnight; read-out: IC50 inhibition of COL1A1 expression
Procedure: COL1A1 assay: Primary human lung fibroblasts were plated in a 96-well plate and allowed to adhere. […] The next day, cells were treated with 1 µM LPA and incubated for 8 h. After incubation in LPA, cells were immunostained for COL1A1. Cells were fixed in formalin for 10 min, washed 3 x with PBS, incubated in collagen 1A1 antibody (1:250 in blocking buffer, 0.1% Triton X-100 in PBS, 2 h), and washed 3 x with PBS. Secondary antibody solution (1:500) and Hoechst (1:2000) were added for 1 h, washed 3 x in PBS then imaged on a Nikon A1R confocal microscope at 10x magnification except human lung fibroblasts which were imaged at 4x. Collagen area was quantified with ImageJ and normalized to Hoechst per image.

[4] = Plasma protein binding (fraction unbound); format: in vitro ADME; details: rat plasma
[5] = test system: mouse alveolar macrophages; assay: IL-1β release of alveolar macrophages from orally dosed mice, ex vivo LPS; format: in vivo; details: 3 mg/kg oral, 24 h before isolation; with and without ex vivo LPS
Procedure: 1.5 mL DPBS was injected into lungs and BAL fluid aspirated. Cells were plated in at 40,000 cells/well and stimulated first with 500 ng/mL LPS for 4 h then and 1 µM LPA for an additional hour at 37 °C. Plates were spun down and supernatant analyzed for IL-1β by ELISA.

[6] = test system: sandwich-cultured human hepatocytes; assay: Cholestatic drug-induced liver injury (c-DILI) assay; format: cell-based; details: 30 µM, 24 h, in the presence or absence of a toxic concentration of bile acids
Procedure: This study was conducted at BioIVT (Durham, […]). Sandwich-cultured human hepatocytes (SCHH) were prepared on BioCoat 96-well Cell Culture Plate from Corning (Cat # 354407) using Transporter Certified™ cryopreserved hepatocytes from BioIVT (Cat # M00995-TCERT) and maintained in freshly prepared QualGro™ Hepatocyte Culture Medium. […] Following 24 h of exposure, the culture plates were harvested for adenosine triphosphate (ATP) and lactate dehydrogenase (LDH) analysis. Cellular ATP content was determined using the CellTiter-Glo® Assay Kit and LDH leakage into the culture media was determined using the CytoTox-ONE® Assay Kit, both obtained from Promega, per manufacturer’s instructions.

COc1ccc(NC(=O)N(c2ccccc2C(C)C)C2CCC(C(=O)O)CC2)c(OC(F)F)n1 (centres unmarked) [PIPE-791]
plasma unbound concentration at 24 h post-dose versus calcium mobilization IC50 [1]: exceeded the in vitro calcium mobilization IC50
body weight improvement over bleomycin alone ([2]; 0.03 mg/kg oral once a day): 28%
lung hydroxyproline (collagen) ([2]; 0.03 mg/kg oral once a day, p = 0.077): trending decrease in collagen, the values did not reach statistical significance
reduction in lung hydroxyproline ([2]; 0.3 mg/kg oral once a day): 41%
body weight improvement over bleomycin alone ([2]; 0.3 mg/kg oral once a day): 41%
reduction in BAL fluid TGFβ vs bleomycin/vehicle ([2]; 3 mg/kg oral once a day): 51%
reduction in BAL fluid TIMP1 vs bleomycin/vehicle ([2]; 3 mg/kg oral once a day): 57%
reduction in BAL fluid procollagen vs bleomycin/vehicle ([2]; 3 mg/kg oral once a day): 65%
reduction in lung hydroxyproline ([2]; 3 mg/kg oral once a day): 39%
body weight improvement over bleomycin alone ([2]; 3 mg/kg oral once a day): 38%
survival ([2]; 0.03, 0.3, 3 mg/kg groups, 3 mice died in bleomycin/vehicle group): no mice lost
maximal inhibition of lung collagen ([2]; prophylactic, at 0.3 mg/kg (discussion)): 40%
IC50 [3]: 1.1 nM
plasma fraction unbound [4]: 0.057
IL-1β levels of isolated alveolar macrophages [5]: comparable to baseline
ATP content (cell viability) [6]: nor a decrease in ATP content
lactate dehydrogenase leakage (cell death) [6]: neither an appreciable increase in lactate dehydrogenase
